Reference: the CheMixHub viscosity set
Values joined by “and” are separate entries in the source; they are usually repeats but may differ in a detail not shown here. Equal values may be shown once.

Assay: xn = mol fraction of the nth substance listed

CC(O)C(=O)O (centres undefined) + C[N+](C)(C)CCO.[Cl-]
viscosity
Details	100 kPa	101 kPa
293.15 K, x2 = 0.1	92.67 mPa·s	–
293.15 K, x2 = 0.1667	107.5 mPa·s	–
293.15 K, x2 = 0.3333	229.3 mPa·s	–
293.15 K, x2 = 0.5	527 mPa·s	–
300.15 K, x2 = 0.1	52.02 mPa·s	–
300.15 K, x2 = 0.1667	59.99 mPa·s	–
300.15 K, x2 = 0.3333	127 mPa·s	–
300.15 K, x2 = 0.5	276.9 mPa·s	–
303.15 K, x2 = 0.5	–	1245 mPa·s
308.15 K, x2 = 0.5	–	877.3 mPa·s
313.15 K, x1 = 0.57	–	267.5 mPa·s
313.15 K, x1 = 0.9	–	103.5 mPa·s
313.15 K, x1 = 0.94	–	103.5 mPa·s
313.15 K, x2 = 0.1	31.27 mPa·s	–
313.15 K, x2 = 0.1667	35.62 mPa·s	–
313.15 K, x2 = 0.3333	79.44 mPa·s	–
313.15 K, x2 = 0.5	157.6 mPa·s	626.3 mPa·s
318.15 K, x2 = 0.5	–	452.1 mPa·s
323.15 K, x2 = 0.1	20.21 mPa·s and 20.21 mPa·s	–
323.15 K, x2 = 0.1667	23.07 mPa·s	–
323.15 K, x2 = 0.3333	51 mPa·s	–
323.15 K, x2 = 0.5	97.82 mPa·s	335.1 mPa·s

CC(O)C(=O)O (centres undefined) + CC(C)[C@@H]1CC[C@@H](C)C[C@H]1O
100 kPa, x2 = 0.67
Details	viscosity [mPa·s]
293.15 K	370.9
298.15 K	218.9
303.15 K	134.3
308.15 K	86.53
313.15 K	58.84
318.15 K	40.71
323.15 K	29.47

C[N+](C)(C)CC(=O)O.[Cl-] + O
viscosity [mPa·s], 101 kPa
Details	293.15 K	298.15 K	303.15 K	308.15 K	313.15 K	318.15 K
x1 = 0.000448	1.007	0.8948	0.8017	0.7233	0.6568	–
x1 = 0.000896	1.011	0.8992	0.8061	0.7276	0.661	0.6055
x1 = 0.00135	1.016	0.9038	0.8106	0.7321	0.6654	–
x1 = 0.0018	1.02	0.9082	0.815	0.7365	0.6697	0.614
x1 = 0.002247	1.025	0.9126	0.8193	0.7408	0.674	0.6184
x1 = 0.002691	1.029	0.917	0.8237	0.7452	0.6783	0.6227
x1 = 0.003581	1.038	0.9259	0.8324	0.7539	0.687	0.6313
x1 = 0.004484	1.048	0.9348	0.8413	0.7627	0.6956	0.6401
x1 = 0.005363	1.056	0.9435	0.85	0.7712	0.7043	0.6486
x1 = 0.006268	1.066	0.9526	0.859	0.7799	0.713	0.6575
x1 = 0.007163	1.075	0.9616	0.8677	0.789	0.7217	0.6664

COCCOCCOCCOCCOC + CCOC(=O)OCC
298.15 K, 101.33 kPa
Details	viscosity [mPa·s]
x1 = 0.0049	0.752
x1 = 0.014	0.772
x1 = 0.0274	0.796
x1 = 0.044	0.824
x1 = 0.068	0.879
x1 = 0.0984	0.938
x1 = 0.1416	1.029
x1 = 0.2036	1.164
x1 = 0.2814	1.348
x1 = 0.3146	1.434
x1 = 0.3497	1.519
x1 = 0.3949	1.634
x1 = 0.4546	1.798
x1 = 0.5017	1.939
x1 = 0.5551	2.083
x1 = 0.5999	2.204
x1 = 0.6478	2.349
x1 = 0.691	2.478
x1 = 0.7376	2.614
x1 = 0.7849	2.76
x1 = 0.8377	2.915
x1 = 0.8758	3.028
x1 = 0.9345	3.218
x1 = 0.9719	3.328
x2 = 0.0132	3.378

[Na+].[O-][Cl+2]([O-])[O-] + O
viscosity [mPa·s], 100 kPa
Details	x1 = 0.001798	x1 = 0.003644	x1 = 0.005393	x1 = 0.007261	x1 = 0.008945	x1 = 0.01087	x1 = 0.01261	x1 = 0.01436	x1 = 0.01582	x1 = 0.01761
293.15 K	0.996	1.007	1.017	1.025	1.033	1.042	1.05	1.058	1.067	1.076
298.15 K	0.889	0.897	0.908	0.918	0.926	0.933	0.942	0.949	0.957	0.965
303.15 K	0.801	0.809	0.817	0.827	0.835	0.841	0.849	0.857	0.865	0.873
308.15 K	0.726	0.734	0.742	0.75	0.758	0.765	0.774	0.781	0.788	0.796
313.15 K	0.663	0.67	0.678	0.685	0.693	0.7	0.708	0.716	0.723	0.729
318.15 K	0.609	0.616	0.623	0.631	0.637	0.643	0.65	0.657	0.665	0.672

CCc1ccccc1 + CCC(C)=O
298.15 K, 101.33 kPa
Details	viscosity [mPa·s]
x1 = 0.0811	0.397
x1 = 0.1608	0.416
x1 = 0.2397	0.433
x1 = 0.347	0.459
x1 = 0.4606	0.487
x1 = 0.5818	0.516
x1 = 0.7041	0.548
x1 = 0.8394	0.587

CCCCCCCCCCCCCCCCCCCCCC + CCCCCCC
viscosity [mPa·s], 101.3 kPa
Details	x1 = 0.2	x1 = 0.4	x1 = 0.479	x1 = 0.596	x1 = 0.798
303.2 K	0.9761	–	–	–	–
313.2 K	0.8502	1.621	2.137	–	–
323.1 K	0.7493	1.39	1.826	2.449	3.197

Clc1ccccc1 + OCCOCCOCCO
viscosity [mPa·s], 101 kPa
Details	298.15 K	308.15 K
x2 = 0.0473	0.941	0.808
x2 = 0.149	1.491	1.172
x2 = 0.2493	2.307	1.682
x2 = 0.3495	3.504	2.4
x2 = 0.439	5.014	3.283
x2 = 0.4734	5.733	3.699
x2 = 0.5509	7.695	4.829
x2 = 0.6512	11.09	6.787
x2 = 0.7493	15.58	9.422
x2 = 0.8483	21.58	13.05
x2 = 0.9428	28.99	17.74
